From patent US20250051316A1, “2-(ARYL-2-YL) […] […], PREPARATION METHOD THEREFOR AND APPLICATION THEREOF” (SHANGHAI HANSOH BIOMEDICAL CO., LTD., priority 2021, published 2025)

Experiments:
TAAR1 receptor = target: T1, TAAR1 receptor (Homo sapiens, UniProt Q96RJ0); assay: Effect on cAMP content in cells which stably express TAAR1 receptor; type: cell-based
T1 construct: expressed in transfected cells
T1 sequence (Q96RJ0 1-339): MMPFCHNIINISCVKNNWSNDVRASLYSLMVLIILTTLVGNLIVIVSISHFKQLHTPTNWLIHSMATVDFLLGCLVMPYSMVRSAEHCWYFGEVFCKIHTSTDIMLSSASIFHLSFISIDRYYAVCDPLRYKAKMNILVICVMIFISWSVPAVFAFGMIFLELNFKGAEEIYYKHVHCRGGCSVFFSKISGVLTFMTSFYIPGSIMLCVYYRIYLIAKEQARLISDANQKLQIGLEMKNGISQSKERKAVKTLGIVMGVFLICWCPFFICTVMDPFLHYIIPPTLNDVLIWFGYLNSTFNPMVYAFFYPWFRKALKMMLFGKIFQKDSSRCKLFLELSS
Description: Test Example1. Determination of the effect of the present compound on cAMP content in cells which stably express TAAR1 receptor
Determination of the activation effect of compounds on TAAR1 receptors.
• 1) Preparation of experimental buffer: 1*HBSS+20 mM HEPES+0.1% BSA+500 μM IBMX. • 2) Complete medium: • Ham's F12K+10% Fetal Bovine Serum+1*Penicillin-Streptomycin+200 μg/mL Hygromycin B for CHO • DMEM+10% Fetal Bovine Serum+1*Penicillin-Streptomycin+200 μg/mL Hygromycin B for HEK293 • 3) TAAR1 cell line was cultured in complete medium at 37° C. and 5% CO2; After TrypLE digestion, the cells were resuspended in the experimental buffer and seeded into a 384 cell culture plate with a density of 8000 cells/15 ul/well. • 4) The compound was diluted with experimental buffer and added 5 μL to each well to culture at 37° C. for 30 minutes. • 5) cAMP-d2 and Anti cAMP Eu3+ were freeze thaw, and diluted 20 times with lysis buffer; 10 μL cAMP-d2 was added to the experimental well, and then 10 μL Anti cAMP Eu3+ was added into the experimental well; the reaction plate was centrifuged at 200 g for 30 seconds at room temperature, and stand at 25° C. for 1 hour; data was collected by Envision.
[formula] • 5) EC50 of compounds was calculated using GraphPad nonlinear fitting formula:
[formula] • X: Log value of the compound concentration; Y: Activation %

[1] = Pharmacokinetic assay of Balb/c mice, plasma and brain, oral; type: in vivo; conditions: male, mouse, p.o. 5 mg/kg
Description: Test Example 3. Pharmacokinetic Assay of Balb/c Mice
Balb/c Mice were used as test animals. The pharmacokinetic behavior of the compounds of the present invention was studied in the plasma and brain of mice administered orally at the dose of 5 mg/kg.
Balb/c Mice, male, Shanghai Jiesijie Experimental Animal Co., Ltd., animal production license number (SCXK (Shanghai) 2013-0006 N0.311620400001794).
After fasting overnight, 24 male Balb/c mice were administered p.o. at a dose of 5 mg/kg and an administration volume of 10 mL/kg, respectively.
Drug formulation for oral administration: 0.5% CMC-Na (1% Tween 80).
After CO2 euthanasia of experimental animals, heart blood and brain tissue were collected at 0.25 h, 0.5 h, 1 h, 2 h, 4 h, 6 h, 8 h, and 24 h after administration. The blood was placed in EDTA-2K tubes and centrifuged at 4° C. and 6000 rpm for 6 minutes to separate plasma. The brain tissue was washed with pre-cooled PBS, dried, weighed, and stored at −80° C. The animals were feed 4 hours after administration.
1) 160 μL of acetonitrile was added to 40 μL of the plasma sample for precipitation, and then the mixture was centrifuged at 3500×g for 5-20 min.
2) 100 μL of the supernatant was taken to analyze the concentration of the test compound by LC/MS/MS.
• Liquid chromatography condition: Shimadzu LC-20AD pump • Mass spectrometry condition: AB Sciex API 4000 mass spectrometer • Chromatographic column: phenomenex Gemiu 5 μm C18 50×4.6 mm • Mobile phase: Eluent A was 0.10% formic acid in water, and Eluent B was acetonitrile • Flow rate: […] • Elution time: 0-4.0 minutes, the eluent is as follows:
The main pharmacokinetic parameters were calculated using WinNonlin8.1, and the results of the pharmacokinetic experiments in mouse are shown in the table below.

[2] = tested on: C57BL/6 mice, high spontaneous activity induced by phencyclidine (PCP); assay: High spontaneous activity model of mice induced by phencyclidine (PCP); type: in vivo; conditions: 60 minutes after modeling
Description: Test Example 2. Pharmacodynamic Evaluation of the Present Compounds in Mice Model of High Spontaneous Activity Induced by Phencyclidine (PCP)
The purpose of the experiment is to evaluate the efficacy of compounds in a high spontaneous activity model of C57BL/6 mice induced by phencyclidine (PCP) using the spontaneous activity method.
C57BL/6 mice, provided by Shanghai Lingchang Biotechnology Co., Ltd., male, 6-8 weeks, 20-24 g, 36 mice.
The day before the experimental test, the animals were placed in the laboratory and acclimated for 8 hours.
On the day of adaptation, the animals were randomly grouped according to their weight.
The animals were weithed and treated with solvent control (20% HP-3-CD), compounds of the present invention (oral administration) respectively. 30 minutes later, modeling (intraperitoneal administration) was performed, and the animals were given physiological saline or phencyclidine, with dosage volume of 10 mL/kg.
After the administration, the animals were placed in observation box and the spontaneous activity was detected for 30 minutes. The moving distance (meters) of the animals in the observation box was counted every 5 minutes.
After 30 minutes, the animals were taken out for modeling and then placed in the observation box to test their spontaneous activity for 60 minutes. The moving distance (meters) of the animals in the observation box was counted every 5 minutes.
Excel software was used to collect data. A Two-Way ANOVA or One-Way ANOVA was conducted used Prism (Graph pad software, Inc.) software. p<0.05 was considered significant difference.

Row | Structure (SMILES) | EC50 (TAAR1 receptor) [nM] | AUC(0-t) ([1]; Brain) [ng·h/mL] | Cmax ([1]; Brain) [ng/mL] | Tmax ([1]; Brain) [min] | half-life ([1]; Brain) [min] | AUC(0-t) ([1]; Plasma) [ng·h/mL] | Cmax ([1]; Plasma) [ng/mL] | Tmax ([1]; Plasma) [min] | half-life ([1]; Plasma) [min] | Total distance (m, Mean ± SEM) 60 minutes ([2]; compound 3 mg/kg oral + PCP 5 mg/kg i.p.) [m] | Total distance (m, Mean ± SEM) 60 minutes ([2]; compound 6 mg/kg oral + PCP 5 mg/kg i.p.) [m]
1 | [2H]c1ccc([C@H]2CNCCO2)nc1 (single isomer, unassigned) [Example 6-2, 2-(pyridin-2-yl-5-d)morpholine] | 3.4 | 6480 | 3030 | 15 | 48 | 4300 | 2050 | 15 | 48 | – | –
2 | [2H]c1ccnc([C@@H]2CNCCO2)c1 (single isomer, unassigned) [Example 7-2, 2-(pyridin-2-yl-4-d)morpholine] | 5.9 | 4410 | 2500 | 30 | 54 | 2840 | 1560 | 30 | 48 | – | –
3 | [2H]C1([2H])COC(c2cc(C)ccn2)CN1 (single isomer, unassigned) [Example 16-1, 2-(4-Methylpyridin-2-yl)morpholin-5,5-d2] | 21.3 | 5630 | 1740 | 15 | 174 | 2270 | 890 | 15 | 114 | – | –
4 | Cc1nc([C@@H]2CNCCO2)ccc1F (single isomer, unassigned) [Example 19-2, 2-(5-fluoro-6-methyl-2-pyridyl)morpholine] | 13.6 | 8640 | 2510 | 120 | 66 | 2760 | 705 | 120 | 222 | – | –
5 | Clc1ccc(C2CNCCO2)nc1 (single isomer, unassigned) [Example 25-2] | 207 | – | – | – | – | – | – | – | – | – | –
6 | [2H]c1ccc(C2CNCCO2)cc1 (single isomer, unassigned) [Example 28-2, 2-(phenyl-4-d)morpholine] | 3 | 3980 | 2110 | 15 | 78 | 2820 | 1340 | 15 | 84 | 113.09 ± 12.69 | –
7 | Clc1cccc(C2CNCCO2)c1 (single isomer, unassigned) [Example 46-1, 2-(3-Chlorophenyl)morpholine] | 17.7 | – | – | – | – | – | – | – | – | – | –
8 | c1ccc(C2CNCCO2)nc1 (stereo not shown) [Compound A, 2-(Pyridin-2-yl)morpholine] | 7.1 | – | – | – | – | – | – | – | – | – | 113.09 ± 12.69
9 | Cc1cccc([C@@H]2CNCCO2)c1 [Example 47-2] | 11.5 | – | – | – | – | – | – | – | – | – | –
10 | Fc1cccc([C@@H]2CNCCO2)c1 [Example 48-1] | 2.1 | – | – | – | – | – | – | – | – | – | –
